Experimental data as given in article PMC10570016, “Domain collapse and active site ablation generate a widespread animal mitochondrial seryl-tRNA synthetase” (Nucleic Acids Research, 2023).

Biological target: T1, DmSLIMP/DmSerRS2α (Drosophila melanogaster, UniProt Q9VF85)
T1 construct: gene SerRS-m; co-expressed in E. coli BL21(DE3) from bicistronic pOPINFS; C-terminal 6His on DmSerRS2α, C-terminal Strep II on DmSLIMP; heterodimer; HisTrap; with Seryl-tRNA synthetase-like insect mitochondrial protein
T1 sequence (Q9VF85 22-417): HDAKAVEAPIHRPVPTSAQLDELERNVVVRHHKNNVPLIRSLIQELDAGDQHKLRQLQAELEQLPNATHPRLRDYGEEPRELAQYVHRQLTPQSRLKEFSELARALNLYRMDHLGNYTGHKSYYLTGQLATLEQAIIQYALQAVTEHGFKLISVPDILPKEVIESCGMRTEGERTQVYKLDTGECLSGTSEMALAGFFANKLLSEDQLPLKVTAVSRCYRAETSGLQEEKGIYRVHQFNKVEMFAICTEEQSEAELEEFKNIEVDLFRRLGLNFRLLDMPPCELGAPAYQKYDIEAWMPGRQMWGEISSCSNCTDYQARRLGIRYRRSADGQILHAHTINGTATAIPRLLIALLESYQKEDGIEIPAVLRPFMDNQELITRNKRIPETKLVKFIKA
T1 sequence (Q95T19 1-464 partner): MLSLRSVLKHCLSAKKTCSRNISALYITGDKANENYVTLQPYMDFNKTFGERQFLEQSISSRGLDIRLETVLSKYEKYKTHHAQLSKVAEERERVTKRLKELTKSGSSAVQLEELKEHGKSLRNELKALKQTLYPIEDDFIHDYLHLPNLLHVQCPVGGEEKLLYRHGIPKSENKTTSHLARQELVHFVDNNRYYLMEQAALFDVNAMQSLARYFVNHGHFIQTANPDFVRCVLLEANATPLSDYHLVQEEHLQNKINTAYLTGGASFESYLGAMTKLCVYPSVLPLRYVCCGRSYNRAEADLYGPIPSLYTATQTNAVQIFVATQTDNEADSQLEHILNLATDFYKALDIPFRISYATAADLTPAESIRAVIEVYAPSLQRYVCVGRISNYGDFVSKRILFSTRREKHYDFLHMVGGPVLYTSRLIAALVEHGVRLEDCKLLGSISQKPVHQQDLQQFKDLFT
Assay: radiometric tRNA aminoacylation, scintillation counting
Format: biochemical
Conditions: co-substrates ATP and in vitro transcribed Drosophila mt-tRNA-Ser(GCU); Mg2+; labelled compound; pH 7.2, 25 °C (mutant SerRS and tRNA assays pH 7.5)

N[C@@H](CO)C(=O)O [serine]
radiometric tRNA aminoacylation, scintillation counting: In all cases the aminoacylation activity of DmSLIMP/DmSerRS2α was not affected by the presence of the LON domain
